Reference: patent US5219841A, “Treatment of arrhythmia by administration of Ap4 A” (Fujirebio, Inc., priority 1989, dated 1993)
Entries after “also recorded” stand apart in the source; their conditions may differ.

Legend:
[1] = system: ouabain-induced cardiac arrhythmia; experiment: Ouabain-induced arrhythmia model; assay type: in vivo, guinea pig; details: for antiarrhythmic effect: onset of P-P interval prolongation, T-P overlapping, ventricular arrhythmia, ventricular fibrillation and cardiac arrest: i.v. infusion over 5 min: ATP 10 or 30 mg/kg, Ap4 A 30 mg/kg, disopyramide 5 mg/kg, ouabain 7 μg/kg/min
Procedure: With a guinea pig (b.w. 450 g) placed under urethane anesthesia (1.1 g/kg), its femoral vein, jugular vein and carotid artery were cannulated. Ap4 A, ATP or disopyramide was injected into the femoral vein and ouabain into the jugular vein through each cannula, while the carotid artery was utilized for a blood pressure monitoring. Changes associated with the administration of the drug were assessed by monitoring electrocardiogram (ECG), blood pressure, mean blood pressure and heart rate (Nihon Kohden Co.; Models AB620G, AP601G and AT601G). ECG was recorded in accordance with the lead II.
Ouabain-induced cardiac arrhythmia model was prepared by continuous infusion of ouabain at a rate of 7 μg/kg/min via the jugular vein. Each drug was administered by intravenous infusion over a period of 5 minutes at the following dose: ATP, 10 or 30 mg/kg; Ap4 A, 30 mg/kg; and disopyramide, 5 mg/kg. The drug was administered simultaneously with the infusion of ouabain. The antiarrhythmic effect of the drug tested was assessed in terms of the total dose of ouabain given until onset of each of the following parameters: P-P interval prolongation, T-P overlapping, ventricular arrhythmia, ventricular fibrillation and cardiac arrest.

[2] = system: platelet aggregation; experiment: Platelet aggregation by the drug itself in absence of ADP; assay type: cell-based, rabbit
[3] = system: adrenaline-induced cardiac arrhythmia; experiment: Adrenaline-induced arrhythmia model; assay type: in vivo, guinea pig; details: for incidence of extrasystole: 10 mg/kg/5min i.v., adrenaline 10 μg/kg, control value 39%; for antiarrhythmic effect (reduction of incidence of extrasystole): i.v. infusion over 5 min: ATP 3 or 10 mg/kg, Ap4 A 3 or 10 mg/kg, propranolol 1 mg/kg
Procedure: With a guinea pig (b.w. 450 g) placed under urethane anesthesia (1.1 g/kg), its femoral vein, jugular vein and carotid artery were cannulated. Ap4 A, ATP or propranolol was injected into the femoral vein and adrenaline into the jugular vein through each cannula, while the carotid artery was utilized for a blood pressure monitoring. Changes associated with the administration of the drug were monitored in the same manner as above (B), and ECG was recorded in accordance with the lead II.
Adrenaline-induced cardiac arrhythmia model was prepared by injecting adrenaline (10 μg/kg) into the jugular vein over 5 seconds. Each drug was administered by intravenous infusion over a period of 5 minutes at the following dose: ATP, 3 or 10 mg/kg; Ap4 A, 3 or 10 mg/kg; propranolol, 1 mg/kg. Adrenaline was administered in a single dose 4 minutes after administration of the drug tested. The grading of arrhythmia was assessed in terms of the incidence of extrasystole.

[4] = system: guinea pig right atrium; experiment: Effect on heart rate of isolated guinea pig right atrium; details: for change of heart rate (bradycardic effect): single dose, 10^-7 to 10^-4 M, KH solution, 31° C.
Procedure: A guinea pig (b.w. 450 g) was stunned and was immediately removed its heart to excise the right atrium therefrom. The right atrium was then suspended in a Magnus tube (30 ml) filled with Krebs-Henseleit (KH) solution which was maintained at 31° C. constantly aerating with a mixture of 95% O2 --5% CO2 therein. After the KH solution was changed with the fresh one at 15-minutes intervals and the heart rate of the right atrium was stabilized in 60-90 minutes, Ap4 A or ATP which was prepared at different concentrations was added to the KH solution in a single dose to determine the change of heart rate. Drug concentrations of 10^-4, 10^-5, 10^-6 and 10^-7 M were employed in this experiment. The heart rate was determined with a cardiotachometer (Nihon Kohden Co.; Model AT601G; Japan) and an isometric converter (Nihon Kohden Co.; Model TB-651T), with a 1-g weight load.

[5] = system: arrhythmia; details: cited from earlier work; for antiarrhythmic activity: Somlo 1955, Komor and Garas 1955
[6] = Fujii and Nakamura 1977; cited from earlier work
[7] = system: ADP-induced platelet aggregation; experiment: ADP-induced platelet aggregation in platelet-rich plasma; assay type: cell-based, rabbit; details: ADP 5 μM
Procedure: Blood was collected from the carotid artery of an unanesthetized rabbit into a syringe containing one volume of 3.8% sodium citrate per nine volumes of blood. The citrated blood was centrifuged at 1100 rpm for 15 minutes, and the supernatant was obtained as platelet-rich plasma (PRP). To 200 μl of PRP in an aggregometer, 10 μl of ATP or Ap4 A solution was added and the mixture was incubated at 37° C. for 10 minutes, followed by addition of 10 μl of 0.1 mM ADP solution (final concentration: 5μM) to induce and measure the aggregation of platelets. Results obtained for ATP are shown in FIG. 5A and those for Ap4 A in FIG. 5B.

[8] = system: hepatocytes; details: Rapaport and Zamecnick 1976; cited from earlier work
[9] = Half lethal dose, Lichfield-Wilcoxon method; details: in vivo, iv, rat
Text: Ap4 A is a novel type of nucleotide discovered in human platelets in a recent year and has the following chemical structure: [drawing 1] The active ingredient Ap4 A of the pharmaceutical composition according to the present invention is thus preferably in a form of a pharmaceutically acceptable salt thereof such as sodium salt, or it may be in a form of free acid thereof. Ap4 A can be produced by a conventional organic synthesis or by an enzymatic synthesis with, for example, leucyl tRNA synthetase derived from thermophilic Bacillus stearothermoohillus (Japanese Patent Application Laid-Open (KOKAI) No. 62-278992; U.S. Pat. NO. 4886749; EP-A-247819), using ATP as the starting material in either method. […] J. Physiol., 254, 828-832 (1988)].

[10] = system: guinea pig heart; experiment: Coronary vasodilative effect, Langendorff perfusion of isolated heart
Procedure: An experiment was performed by a modification of the method of Aronson and Serlick [Toxicol. Appl. Pharmac., 38, 479-488 (1976) and 39, 157-176 (1977); Biochem. Pharmac. 26, 2297-2305 (1977)]. The guinea pig heart removed was started perfusing at the origin of the aorta by the Langendorff perfusion method. Perfusion was carried out at 37° C. and 14 ml/min of flow rate with a peristalic pump (TAIYO TYPE 1500N; Japan) in Krebs-Henseleit solution (KH: NaCl, 118 mM; phosphate, 1.2 mM; NaHCO3, 25 mM; glucose, 10 mM; KCl, 4.7 mM; CaCl2, 2.5 mM; and MgSO4, 1.2 mM; pH 7.4; bubbling with 95% O2 - 5% CO2). After the initiation of the perfusion, an incision was made in the left auricle and a cannula was inserted into the left ventricle via the left atrium to measure the left ventricular pressure with a pressure transducer (Nihon Kohden Co.; Model TP-200T). The differential value of the left ventricular pressure (dp/dt) was measured with a cardiotachometer (Nihon Kohden Co.; Model AT-601G). The perfusion pressure was determined with a pressure transducer connected to the aortic cannula. Ap4 A was dissolved in KH at various concentrations and administered to the perfusion system in a single dose of 1-100 μg/0.1 ml/5 sec or by a continuous infusion of 1-100 μg/5ml/15 min.

[11] = system: rabbit mesenteric artery; details: Busse et al. 1988; cited from earlier work
[12] = system: baby hamster kidney cells; details: Grummt 1978; cited from earlier work
[13] = system: adenosine diphosphate (ADP)-stimulated human platelet aggregation; details: Luthje and Ogiluie 1984; cited from earlier work
[14] = 3×10^-5 M or more, absence of ADP
[15] = single dose 1-100 μg/0.1 ml/5 sec

Nc1ncnc2c1ncn2[C@@H]1O[C@H](COP(=O)(O)OP(=O)(O)OP(=O)(O)O)[C@@H](O)[C@H]1O [ATP, Adenosine 5'-triphosphate, reference compound]
antiarrhythmic effect: onset of P-P interval prolongation, T-P overlapping, ventricular arrhythmia, ventricular fibrillation and cardiac arrest [1]: has an antiarrhythmic activity; also recorded: inhibited all these parameters
platelet aggregation by the drug itself [2, 14]: caused a dose-dependent aggregation of platelets
minimal effective concentration ([2]; Oryctolagus cuniculus, Platelet, absence of ADP, read-out: concentration causing dose-dependent aggregation of platelets): ≥ 30 µM
platelet-aggregating activity ([2]; in words, found by the inventors): has platelet-aggregating activity
incidence of extrasystole [3]: 5.3%
antiarrhythmic effect (reduction of incidence of extrasystole) [3]: reduced the incidence of extrasystole with a dose-dependency; also recorded: dose-dependent reduction of the incidence of extrasystole
change of heart rate (bradycardic effect) [4]: reduced the heart rate with a dose-dependency; also recorded: decreased the atrial heart rate with a dose-dependency
antiarrhythmic activity [5]: possess the antiarrhythmic activity
effect on paroxysmal supraventricular tachycardia ([5]; clinical, Otsuka et al. 1986): successful arrest of the paroxysmal supraventricular tachycardia; also recorded: efficacy against the paroxysmal supraventricular tachycardia which is insusceptible to other antiarrhythmic drugs such as verapamil, digoxin and ajimaline
vasodilation and other pharmacological effects [6]: vasodilation; also recorded: enhancement of in vivo metabolic activity; also recorded: increase in muscle contraction; also recorded: rise of efficiency of the neural transmission

Nc1ncnc2c1ncn2[C@@H]1O[C@H](COP(=O)(O)OP(=O)(O)OP(=O)(O)OP(=O)(O)OC[C@H]2O[C@@H](n3cnc4c(N)ncnc43)[C@H](O)[C@@H]2O)[C@@H](O)[C@H]1O [Ap4 A, diadenosine 5',5'''-P^1,P^4 -tetraphosphate]
antiarrhythmic effect compared with ATP ([1]; 30 mg/kg i.v., same dose of ATP): practically the same as that of ATP, or slightly lower; also recorded: virtually comparable with or slightly inferior to that of ATP
antiarrhythmic effect: onset of P-P interval prolongation, T-P overlapping, ventricular arrhythmia, ventricular fibrillation and cardiac arrest [1]: inhibited the onsets of such parameters as P-P interval prolongation, T-P overlapping, ventricular arrhythmia, ventricular fibrillation and cardiac arrest; also recorded: inhibited all these parameters
platelet aggregation by the drug itself [2, 14]: did not cause platelet aggregation at all
platelet aggregation by the drug itself ([2]; even at 3×10^-4 M): no activity of platelet aggregation; also recorded: no effect of the platelet aggregation
inhibition of ADP-induced platelet aggregation ([7]; 3×10^-5 M to 3×10^-4 M, in words): markedly inhibited ADP-induced platelet aggregation with a dose-dependency; also recorded: inhibited by Ap4 A with a dose-dependency
inhibition at 300 µM ([7]; Oryctolagus cuniculus, Platelet, 3×10^-4 M, rabbit PRP, 37° C., 10 min preincubation, vs control): 76%
inhibition at 30 µM ([7]; Oryctolagus cuniculus, Platelet, 3×10^-5 M, rabbit PRP, 37° C., 10 min preincubation, vs control): 21%
growth of hepatocytes [8]: promotion of the growth of hepatocytes
incidence of extrasystole [3]: 8.0%
antiarrhythmic effect (reduction of incidence of extrasystole) [3]: reduced the incidence of extrasystole with a dose-dependency; also recorded: dose-dependent reduction of the incidence of extrasystole
antiarrhythmic effect compared with ATP ([3]; i.v., incidence of extrasystole): somewhat inferior to that of ATP; also recorded: somewhat weaker than that of ATP
LD50 [9]: 102 mg/kg
perfusion pressure and left ventricular pressure ([10]; continuous infusion 1-100 μg/5ml/15 min): the perfusion pressure and the left ventricular pressure decreased depending on the dose of Ap4 A
dose showing coronary vasodilative effect without affecting heart rate or left ventricular pressure ([10]; e.g.): 1 µg
heart rate [10, 15]: marked decrease of heart rate
left ventricular pressure [10, 15]: fell transiently after administration and subsequently it was elevated
perfusion pressure [10, 15]: dose-dependent fall of perfusion pressure; also recorded: observed from the lowest dose of Ap4 A
perfusion pressure (coronary vasodilative activity) ([10]; single or continuous dose): the perfusion pressure decreased depending on the dose
relative potency vs ATP (change of heart rate) ([4]; 10^-4 M): 2.1 -fold
relative potency vs ATP (change of heart rate) ([4]; 10^-5 M): 1.5 -fold
relative potency vs ATP (change of heart rate) ([4]; 10^-6 M): 1.5 -fold
potency compared with ATP (percent change of heart rate) ([4]; in words): prone to be more potent than ATP; also recorded: tends to be greater than that of ATP
change of heart rate (bradycardic effect) [4]: reduced the heart rate with a dose-dependency; also recorded: decreased the atrial heart rate with a dose-dependency
vasodilative action [11]: vasodilative action
DNA synthesis [12]: enhancement of DNA synthesis
effect on ADP-stimulated human platelet aggregation [13]: inhibitory effect

Nc1ncnc2c1ncn2[C@@H]1O[C@H](CO)[C@@H](O)[C@H]1O [adenosine]
antiarrhythmic activity [5]: possess the antiarrhythmic activity

CC(C)N(CCC(C(N)=O)(c1ccccc1)c1ccccn1)C(C)C (stereo not drawn) [disopyramide, reference compound]
antiarrhythmic effect: onset of P-P interval prolongation, T-P overlapping, ventricular arrhythmia, ventricular fibrillation and cardiac arrest [1]: has an antiarrhythmic activity; also recorded: inhibited all these parameters

CC(C)NCC(O)COc1cccc2ccccc12 (stereo not drawn) [propranolol, reference compound]
antiarrhythmic effect (reduction of incidence of extrasystole) [3]: reduced the incidence of extrasystole with a dose-dependency; also recorded: dose-dependent reduction of the incidence of extrasystole
